# According to patent US9260417B2, “Therapeutic methods and compositions involving allosteric kinase inhibition” (AMITECH THERAPEUTIC SOLUTIONS, INC., priority 2010, dated 2016):
# Tests used:
# HT29 = assay: Tumor cell viability; type: cell-based; details: Homo sapiens, HT-29; Colon HT29, B-RAF V600E
# Method: (§1) For XTT assays, cells were grown in 96-well plates overnight and all assays were conducted in growth medium will full serum and additives. Compounds were serially diluted in DMSO and then further diluted into the medium to give the appropriate concentration while minimizing precipitation associated with serial diluting in medium alone Inhibitors were added for 72 h and cell viability was quantified at 450 nm after the addition of 1 mg/ml XTT solution (Sigma-Aldrich) in phenol-red free DMEM medium containing […] (Sigma-Aldrich). Dose-response curves were plotted using GraphPad Prism software and EC50s were calculated using this program.
# MCF7 = assay: Tumor cell viability; type: cell-based; details: Homo sapiens; Breast MCF7, PI3K
# Method: as §1
# R40P = assay: Tumor cell viability; type: cell-based; details: Pancreatic (mouse spontaneous model) R40P, K-Ras
# Method: as §1
# HCT116 = assay: Tumor cell viability; type: cell-based, human; details: Homo sapiens, HCT-116; Colon HCT116, K-Ras
# Method: as §1
# [1] = target: B-RAF/C-RAF heterodimerization (Homo sapiens (Human), UniProt P15056); assay: B-RAF/C-RAF heterodimerization in HUVECs (immunoprecipitation/Western); type: cell-based; details: ECs stimulated with bFGF or VEGF
# B-RAF/C-RAF heterodimerization, sequence (P15056 whole entry, one chain of several): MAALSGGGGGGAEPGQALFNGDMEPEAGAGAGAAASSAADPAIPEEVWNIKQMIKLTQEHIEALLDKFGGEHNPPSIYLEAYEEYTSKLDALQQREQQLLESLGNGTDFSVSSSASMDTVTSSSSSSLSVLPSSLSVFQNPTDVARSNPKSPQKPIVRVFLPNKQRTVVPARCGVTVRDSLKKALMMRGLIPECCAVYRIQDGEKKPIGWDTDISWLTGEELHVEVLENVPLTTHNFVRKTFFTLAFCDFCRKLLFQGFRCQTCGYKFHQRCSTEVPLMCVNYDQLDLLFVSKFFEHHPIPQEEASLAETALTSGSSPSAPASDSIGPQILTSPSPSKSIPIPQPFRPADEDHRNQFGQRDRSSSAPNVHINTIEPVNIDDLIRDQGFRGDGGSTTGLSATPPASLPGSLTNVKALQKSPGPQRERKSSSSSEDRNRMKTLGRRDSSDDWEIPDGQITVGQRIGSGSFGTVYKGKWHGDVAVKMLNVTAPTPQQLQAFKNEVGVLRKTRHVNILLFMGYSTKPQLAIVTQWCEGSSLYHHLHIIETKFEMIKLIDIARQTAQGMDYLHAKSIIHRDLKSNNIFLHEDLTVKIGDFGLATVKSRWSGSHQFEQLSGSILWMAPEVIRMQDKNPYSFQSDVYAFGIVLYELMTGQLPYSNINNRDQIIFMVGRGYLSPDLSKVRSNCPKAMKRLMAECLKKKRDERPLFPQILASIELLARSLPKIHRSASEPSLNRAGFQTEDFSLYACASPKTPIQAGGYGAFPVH
# [2] = tested on: Tg(fli1:EGFP) zebrafish embryos; assay: Zebrafish angiogenesis model; details: for intersegmental vessel formation: treated 16-48 hpf, 5 μM imatinib, 1 μM GW 5074, alone or combined
# Method: Embryos were treated with 1 μM 6 or SU5416, or 10 μM 3 from 20 hours post fertilization (hpf) until 48 hpf. Representative 3D reconstructions of the blood vasculature are shown for both the head and tail regions of the embryo. Designations for the major vessels in the head and tail of the zebrafish embryo at 48 hpf are available in FIG. 8A. (FIG. 3B) Disruption of lumen formation in the zebrafish during late vessel maturation. Zebrafish treated with either 1 μM 6 or 10 μM 3 from 20-48 hpf were imaged at 35 and 48 hpf. […] Shown is 3D overlap reconstruction of the GFP expressing intersegmental vessels with TUNEL-positive nuclei at 48 hpf (shown in red). Representative phase contrast views as well as quantification of intersegmental vessel volumes from FIG. 3A and FIG. 3B can be found in FIG. 8B-D, respectively. (FIG. 3C) Time course of drug addition to zebrafish. […] At 30 hpf the zebrafish embryos established early vessels with evident lumens. […] All scale bars=100 μm.
# Z-stacks from laser scanning confocal microscopy are shown depicting formation of the intersegmental vessels at 48 hpf. n=6 embryos/treatment. (FIG. 4B) HUVECs were co-cultured with hTERT-human hepatic stellate cells in a 3-D collagen matrix in the presence of complete EBM-2 medium to monitor pericyte-associated endothelial tube formation. […] The endothelial tubes were stained at 24 h by adding 2 μl FITC labeled Ulex europaeus lectin (Vector labs) per well. Images were acquired 48 h post seeding of the cells. One representative panel from 3 independent experiments is shown. Green—FITC lectin labeled endothelial cells, Red—DiIC(3) labeled stellate cells. […] Scale bar=200 μm. (FIG. 4C) Tube lengths were measured using Metamorph software for each tube for all 10 fields that were acquired. The % pericyte-covered tube length was calculated from the ratio of tube length sums for the tubes with and without pericyte contact. Error bars are reported as ±SEM of two wells per group. *indicates p<0.05 compared to DMSO group.
# Zebrafish studies. Transgenic Tg(fli1:EGFP) zebrafish embryos were purchased from www.zfin.org and reported elsewhere (Lawson, et al. (2002) Dev Biol 248:307-318) and maintained according to (“Zebrafish—A Practical Approach”, Oxford University Press, 2002). Compounds in DMSO stock solutions were diluted directly into the water and vessels were imaged for GFP expression using a Nikon c1-si confocal microscope. Apoptosis was measured by TUNEL staining using the Apoptag in situ Red Fluorescence Kit (Chemicon) with a protocol described previously (Stanton, et al. (2006) The Journal of biological chemistry 281:28782-28793).
# [3] = tested on: HUVECs co-cultured with hTERT-human hepatic stellate cells; assay: Stellate cell/endothelial cell co-culture tube formation assay; type: cell-based; details: […] 6, […] 3, 1.0 μM imatinib, 0.5 μM GW 5074
# Method: One representative panel from 3 independent experiments is shown. […] Scale bar=200 μm.
# The stellate cells were washed in PBS and mixed with early passage HUVECs (p<5) at a ratio of 1:4 and mixed into a 3.75 mg/ml Type 1 Rat tail collagen matrix (BD Biosciences) in M-199 media. 30 μl of this mixture was seeded onto each well of a half-area 96 well plate (Corning). The collagen was allowed to polymerize for 30 min at 37° C. and […] of complete EBM-2 media was added to each well. Various inhibitors were serially diluted in DMSO and subsequently added to duplicate wells 6 h post cell seeding. […] The endothelial tubes and the stellate cells were imaged at 48 h with a 10× objective on a confocal microscope. Images were collected across five fields per well.
# Stellate cell/endothelial cell tube formation assay and mouse matrigel model. This assay was performed as described in the SI Methods. The stellate cells were a gift from Dr. David Brenner and previously described (Schnabl, et al. (2002) Laboratory investigation; a journal of technical methods and pathology 82:323-333). […] The mouse matrigel model was performed as previously described (Eliceiri, et al. (1999) Molecular cell 4:915-924 5) and further details of immunohistochemistry and animal dosing can be found herein.
# To validate the findings of Example 10, a co-culture angiogenesis assay was utilized to evaluate similar combinations of PDGFR and RAF inhibitors. In the assay, HUVECs are mixed with hepatic stellate cells (a pericyte found in the perisinusoidal space of the liver) in a 3D-collagen gel. The co-culture produced endothelial tubes with pericyte contacts (from the stellate cells) that can be imaged and quantified as shown in FIGS. 4B and C.
# A549 cells = assay: Cell proliferation assay (BrdU ELISA) in A549 cells; type: cell-based; details: A549, low serum DMEM (0.5% FBS), 72 h
# Method: A549 cells, which endogenously express oncogenic K-RAS, were plated at 2500 cells/well of a 96-well plate in low serum DMEM (0.5% fetal bovine serum) overnight. The next morning, compounds were serially diluted in DMSO and resuspended in fresh DMEM+0.5% medium, which was added to the cells for 72 h. At this time point the cells were fixed and proliferation was quantified using an ELISA for bromodeoxyuriding incorporation (BrdU ELISA, Millipore, Inc.). BrdU incorporation occurs during S phase and is the classical method for determining cell proliferation rates. In FIG. 14B-C, BrdU incorporation is expressed as a percentage of the BrdU incorporation occurring in cells treated with 0.1% DMSO as control. A dotted line represents the growth rate of cells treated with DMSO alone. […] (FIG. 13C)
# XPA-1 cells = assay: Cell cycle analysis of XPA-1 cells (flow cytometry); type: cell-based; details: 5 μM, 20 h
# Method: For cell cycle analysis, cells were grown in complete DMEM+10% FBS in the presence of each inhibitor and harvested after 20 h of inhibitor treatment. Cell cycle analysis was performed by flow cytometry following propidium iodide staining. The cells were harvested, fixed with ice cold methanol, treated for 45 min with 10 μg/ml of RNAse and resuspended in PBS containing 10 μg/ml of PI, and analysed by flow cytometry. […] For corresponding confocal microscopy images, cells attached to coverslips were fixed with cold methanol and permeabilized in PBS containing 0.1% triton X-100 for two minutes and blocked for 60 minutes, at room temperature with 2% BSA in PBS. Cells were stained with the DNA binding dye TOPRO-3 (Invitrogen) to label the DNA and laminB (Santa Cruz) to label the nuclear envelope. The anti-Lamin B antibody was used at a 1:100 dilution for two hours at room temperature. After washing several times with PBS, cells were stained for two hours at room temperature, with secondary antibody diluted 1:300 and co-incubated with TOPRO-3 (1:500) (Invitrogen). Samples were mounted in Vectashield hard-set mounting media (Vector Laboratories) and imaged on a Nikon Eclipse Cl confocal microscope with a 1.4 NA 60× oil-immersion lens, using minimum pinhole (30 μm). Images were captured and processed using EZ-C1 3.50 imaging software (Nikon, Inc). Scale bars, 10 μm.
structure (smiles),measurement,setting,value
N#CC(=C(/N)Sc1ccccc1N)/C(C#N)=C(\N)Sc1ccccc1N [Compound U0126],EC50,HT29,4.41 µM
same,EC50,MCF7,> 20 µM
same,EC50,R40P,10.9 µM
same,EC50,HCT116,> 20 µM
same,B-RAF/C-RAF heterodimer formation,[1],greatly increased
"O=C1Nc2ccc(I)cc2/C1=C/c1cc(Br)c(O)c(Br)c1 [GW 5074, reference compound]",intersegmental vessel formation,[2],do not have an effect on intersegmental vessel formation
same,endothelial tube formation and % pericyte-covered tube length,[3],did not affect pericyte coverage or tube length
"Oc1cc(-c2nc(-c3ccccc3)[nH]c2-c2ccncc2)ccc1Cl [L-779,450]",cell proliferation (BrdU incorporation) versus DMSO control,A549 cells,induce hyperproliferation
"O=C(NOC[C@H](O)CO)c1ccc(F)c(F)c1Nc1ccc(I)cc1F [PD0325901, reference compound]",cell cycle / mitotic progression,XPA-1 cells,had no effect on mitotic progression
CCCS(=O)(=O)Nc1ccc(F)c(C(=O)c2c[nH]c3ncc(Cl)cc23)c1F [PLX 4720],cell proliferation (BrdU incorporation) versus DMSO control,A549 cells,induce hyperproliferation
"Cc1cc(C)c(C=C2C(=O)Nc3ccccc32)[nH]1 [SU5416, 3-[(2,4-dimethylpyrrol-5-yl)methylene]-2-indolinone]",blood vessel formation in zebrafish embryos,"[2]; treated 20-48 hpf, 1 μM 6 or SU5416, up to 10 μM 3",completely disrupting endothelial cell migration and neovascularization in the tail
"Cc1ccc(NC(=O)c2ccc(CN3CCN(C)CC3)cc2)cc1Nc1nccc(-c2cccnc2)n1 [imatinib, reference compound]",intersegmental vessel formation,[2],do not have an effect on intersegmental vessel formation
same,endothelial tube formation and % pericyte-covered tube length,[3],did not affect endothelial tube formation
